One data set concerns lung cancer A549 cells. Description: Tumor treatment experiment in A549 tumor cell-bearing nude mice.
In data set [1] the test system is liver cancer cell line HepG2. Briefly: MTT growth inhibition / IC50 on liver cancer cell line HepG2. It is filed as cell-based. As to the method: After growing to 80% density, the cells were trypsinized, passaged and plated in a 96-well plate with 5000 cells per well. […] After 48 hours, the absorbance at each concentration was detected by the MTT method.
The test system of data set [2] is liver cancer cell line HepG2; colorectal cancer cell line LoVo, HT29, SW620, SW480. Description: MTT growth inhibition, Apatinib alone vs Apatinib+Sotagliflozin on tumor cell lines. It is filed as cell-based. To be noted: Apatinib 5-30 μM alone or with Sotagliflozin 20 μM, 48 hours. The source says: After obtaining the effectiveness of Gefitinib in Example 1, the present disclosure further validated another VEGFR-targeting TKI drug, Apatinib. According to the tissue distribution characteristics of VEGFR and SGLT1/2, the targets of Apatinib and Sotagliflozin, the followings cells were selected for experimental verification: liver cancer cell line HepG2; colorectal cancer cell line LoVo, HT29, SW620, SW480; cervical cancer HeLa; ovarian cancer SKOV3; gastric cancer HGC27; cholangiocarcinoma RBE; esophageal cancer KYSE3, and the like. After growing to 80% density, the cells were trypsinized, passaged and plated in a 96-well plate with 5000 cells per well. After 24 hours, the medium was replaced with a medium containing the corresponding concentration of Apatinib, Sotagliflozin, or the combination of Apatinib and Sotagliflozin. After 48 hours, the absorbance at each concentration was detected by the MTT method. The experiment included the following groups: Control group: cells were cultured in normal culture medium without drug added. […] The cell growth inhibition rate was calculated by dividing the absorbance value at each concentration by the absorbance value of the control group. […] In the figures, the concentration of Apatinib is taken as the abscissa and the cell growth inhibition rate is taken as the ordinate.

The subject of data set [3] is liver cancer HepG2 cells, colorectal cancer LoVo, HT29, DLD1, SW480, and HCT116 cells. Briefly: Growth inhibition, Lenvatinib alone vs Sotagliflozin combined with Lenvatinib. In kind it is cell-based. To be noted: Sotagliflozin at a safe dose; variety of cell lines. An excerpt:
Therefore, the effect of the combination in the safe concentration range of Sotagliflozin is better than the effect of each single agent. It is worth mentioning that the ability of Sotagliflozin in the combination to enhance the efficacy of VEGFR-targeting TKI drugs is not limited to a single drug of Apatinib.

For data set [4], the system named is lung cancer cell line A549. Briefly: MTT growth inhibition / IC50 on lung cancer cell line A549. In kind it is cell-based. An excerpt:
According to the tissue distribution characteristics of EGFR and SGLT1/2, the targets of Gefitinib and Sotagliflozin, the followings cells were selected for experimental verification: lung cancer cell line A549; colorectal cancer cell line LoVo, HT29, SW620, HCT116; cervical cancer HeLa; ovarian cancer SKOV3; gastric cancer HGC27; cholangiocarcinoma RBE; esophageal cancer KYSE30, and the like. After growing to 80% density, the cells were trypsinized, passaged and plated in a 96-well plate with 5000 cells per well. After 24 hours, the medium was replaced with a medium containing the corresponding concentration of drug. After 48 hours, the absorbance at each concentration was detected by the MTT method.
(§1) The experiment included the following groups:
Sotagliflozin test group (FIG. 2-a-2): cells were treated by adding Sotagliflozin alone at 6 different concentrations, 0 μM, 10 μM, 30 μM, 40 μM, […] respectively, to the culture medium, and cell survival rate was measured after […] of incubation.

The test system of data set [5] is prostate cancer DU145 cells. Briefly: MTT inhibitory effect of Sotagliflozin on DU145 cells. In kind it is cell-based. To be noted: 48 hours. As to the method:
(§2) Prostate cancer DU145 cells, breast cancer MCF-7 cells, esophageal cancer KYSE30 cells, gastric cancer HGC-27 cells, cholangiocarcinoma RBE cells, ovarian cancer SKOV3 cells, and cervical cancer Hela cells were used to verify the inhibitory effect of Sotagliflozin on tumor cells. After growing to 80% density, the cells were trypsinized, passaged and plated in a 96-well plate with 5000 cells per well. After 24 hours, the medium was replaced with a medium containing the corresponding concentration of drug. After 48 hours, the absorbance at each concentration was detected by the MTT method.
as §1
(§3) Control group: cells were cultured in normal culture medium without drug added.
(§4) Sotagliflozin test group: cells were treated by adding Sotagliflozin at different concentration to each culture medium.
(§5) After incubation, the cell growth inhibition rate was calculated by dividing the absorbance value at each concentration by the absorbance value of the control group. In the figures, the concentration of Sotagliflozin is taken as the abscissa and the cell growth inhibition rate is taken as the ordinate.

In data set [6] the test system is breast cancer MCF-7 cells. Briefly: MTT inhibitory effect of Sotagliflozin on MCF-7 cells. It is filed as cell-based. To be noted: 48 hours. As to the method: as §2, §1, §3, §4, §5
Data set [7] relates to esophageal cancer KYSE30 cells. Description: MTT inhibitory effect of Sotagliflozin on KYSE30 cells. In kind it is cell-based. To be noted: 48 hours. As to the method:
as §2, §1, §3, §4, §5

The test system of data set [8] is gastric cancer HGC-27 cells. Briefly: MTT inhibitory effect of Sotagliflozin on HGC-27 cells. In kind it is cell-based. To be noted: 48 hours. As to the method: as §2, §1, §3, §4, §5
The test system of data set [9] is cholangiocarcinoma RBE cells. Briefly: MTT inhibitory effect of Sotagliflozin on RBE cells. In kind it is cell-based. To be noted: 48 hours. As to the method: as §2, §1, §3, §4, §5
The subject of data set [10] is ovarian cancer SKOV3 cells. Briefly: MTT inhibitory effect of Sotagliflozin on SKOV3 cells. It is filed as cell-based. To be noted: 48 hours. As to the method:
as §2, §1, §3, §4, §5

Data set [11] deals with cervical cancer HeLa cells. Briefly: MTT inhibitory effect of Sotagliflozin on HeLa cells. It is filed as cell-based. To be noted: 48 hours. As to the method: as §2, §1, §3, §4, §5
Data set [12] deals with normal human umbilical cord epithelial cells.
Where [13] appears, read: A549 tumor-bearing nude mice, gavage once every two days, 40 days.

Entries after “also recorded” stand apart in the source; their conditions may differ. Read-outs that look alike come from different tables or passages of the source.

Description for lung cancer A549 cells: After growing to the logarithmic phase, A549 cells were collected and resuspended in serum-free DMEM medium to 5×10^7 cells per ml. Each mouse was inoculated with 100 μl of 5×10^6 cells, and the tumor size was measured 19 days later. Mice were grouped according to the tumor size, and the average tumor size in each group was the same. Mice were administered after grouping.
The dose of Gefitinib was 100 mg per kilogram according to the reported dose for the treatment of A549 xenograft tumor in previous studies. The two drugs were administered by gavage, consistent with the current oral mode in clinical use. The dosing cycle was once every two days. The tumor size was measured every two days. After 40 days of administration, the test was ended, and the tumor was removed and weighed.

For `COc1cc2ncnc(Nc3ccc(F)c(Cl)c3)c2cc1OCCCN1CCOCC1` [Gefitinib], in the data set on lung cancer A549 cells (mouse, in vivo), the Average tumor volume stood at 504.8 and the “Tumor volume ratio of each group to the control group” value came to 0.4881.
Take `N#CC1(c2ccc(NC(=O)c3cccnc3NCc3ccncc3)cc2)CCCC1` [Apatinib]: the IC50 in data set [1] (Homo sapiens, HepG2, Apatinib alone, cell survival rate after 2 h of incubation, read-out: IC50 value on HepG2 cells) was found to be 46 µM. Further, the “inhibitory effect on tumor cells (cell growth inhibition rate)” value in [2] is “limited”.
On to `COc1cc2nccc(Oc3ccc(NC(=O)NC4CC4)c(Cl)c3)c2cc1C(N)=O` [Lenvatinib], for which the “effect of addition of Sotagliflozin on inhibitory effect of Lenvatinib” value in data set [3] is “enhanced the inhibitory effect”.
For the molecule Sotagliflozin, the IC50 in [4] (Sotagliflozin alone, lung cancer A549 cells, summary value, read-out: IC50) is 71.6 µM; in data set [4] (single agent alone, cell survival rate after 1 h of incubation, read-out: IC50 value on A549 cells) it was 73 µM; in data set [1] (Sotagliflozin alone, liver cancer HepG2 cells, summary value, read-out: IC50) it was 116 µM; in data set [1] (Sotagliflozin alone, cell survival rate after 2 h of incubation, read-out: IC50 value on HepG2 cells), 116 µM; in data set [5], 40.8 µM; in data set [6] it was 64.8 µM. Further, the IC50 in data set [7] worked out at 82.3 µM; in data set [8], 48.5 µM; in [9], 182 µM; in [10] it was 84.5 µM; in data set [11], 82.1 µM. For the same molecule, the “concentration at which mainly cell growth inhibition effect is exhibited” value in data set [12] is given as “lower than 8 μM”. In addition, the “concentration producing great cytotoxicity” value in [12] was “higher than 80 μM”. The “Tumor growth inhibition rate” value with lung cancer A549 cells (setting [13]) is reported as 58.4. The “Tumor volume ratio of each group to the control group” value in the data set on lung cancer A549 cells (setting [13]) is reported as 0.416. Further, the Average tumor volume in the data set with lung cancer A549 cells (A549 tumor-bearing nude mice, gavage once every two days, 40 days, Sotagliflozin 30 mg/kg, Gefitinib 100 mg per kilogram) amounted to 430.3. The “inhibitory effect on tumor volume / tumor growth” value in the data set on lung cancer A549 cells (tumor-bearing mice) is on record as “can inhibit tumor growth; also recorded: good inhibitory effect on tumor volume”.

For the origin of these results see US20220313652A1, “USE OF COMPOUND OR PHARMACEUTICALLY ACCEPTABLE SALT, DIMER OR TRIMER THEREOF IN MANUFACTURE OF MEDICAMENT FOR TREATING CANCER” (priority 2020, published 2022).
